Source: patent US6544727B1, “Methods and devices for the removal of psoralens from blood products” (Cerus Corporation, priority 1995, dated 2003)
Like-named read-outs stand apart in the source and are kept apart here.

What was measured:
R17 bacteriophage = R17 bacteriophage inactivation assay, varying compound concentration; type: cell-based; details: for R17 inactivation efficiency compared with AMT or 8-MOP (in words): varying concentration, Tables 6-9, FIGS. 6-10
Procedure: An r-17 bacteriophage assay was used in this example to predict pathogen inactivation efficiency and to determine nucleic acid binding of the photoreactive binding compounds of the present invention. In the r-17 assay, the bacteriophage was placed in a solution with each compound tested and was then irradiated. The ability of the phage to subsequently infect bacteria and inhibit their growth was measured. The bacteriophage was selected for its relatively accessible nucleic acid such that the culture growth inhibition would accurately reflect nucleic acid damage by the test compounds. The bacteriophage assay for nucleic acid binding to test compounds offers a safe and inexpensive procedure to identify compounds likely to display efficient pathogen inactivation.
The R17 was grown up in Hfr 3000 bacteria, approximate titer 5×10^11. (R17 and Hfr 3000 were obtained from American Tissue Culture Collection (ATCC), Washington, D.C.) The R17 phage stock was added to a solution of 15% fetal bovine serum in Dulbecco's Modified Eagles Medium (DMEM) to a final phage concentration of 10^9/mL. An aliquot (0.5 mL) was transferred to a 1.5 mL snap-top polyethylene tube. An aliquot (0.004-0.040 mL) of the test compound stock solution prepared in water, ethanol or dimethylsulfoxide at 0.80-8.0 mM was added to the tube. Compounds were tested at concentrations between 4 μM and 320 μM. […] The tubes were placed in a light device as described in EXAMPLE 1 and irradiated for between 1 and 10 minutes. Sterile 13 mL dilution tubes were prepared; each test compound required one tube with 0.4 mL of Luria broth (LB) and five tubes containing 0.5 mL of LB broth. To make the dilutions, a 0.100 mL aliquot of the irradiated solution of phage and test compound was added to the first dilution tube of 0.4 mL of media then 0.020 mL of this solution was added to the second tube of 0.5 mL medium (1:25). The second solution was then diluted serially (1:25) into the remaining tubes. To each diluted sample was added 0.050 mL of Hfr 3000 bacteria cultured overnight and 3 mL of molten LB top agar and the mixed materials were poured onto LB broth plates. After the top agar hardened, the plates were incubated at 37° C. overnight. The plaque forming units were then counted the following morning and the titer of the phage remaining after phototreatment was calculated based on the dilution factors.
The following controls were run: the “phage only” in which phage was not treated with test compound and not irradiated (listed as “starting titer” in the tables below); the “UV only” in which the phage was irradiated in the absence of test compound; and the “dark” control in which the phage/test compound solution was not irradiated before it was diluted and plated.

[1] = test system: Salmonella tester strain TA100
Procedure: (§1) In this example the compounds of the present invention are tested for their dark mutagenicity using an Ames assay. The procedures used for the Salmonella mutagenicity test as described in detail by Maron and Ames were followed exactly. Maron, D. M. and B. N. Ames, Mutation Research 113: 173 ( 1983). A brief description for each procedure is given here. The tester strains TA97a, TA98, TA100, TA102, TA1537 and TA1538 were obtained from Dr. Ames. TA97a, TA98, TA1537 and TA1538 are frameshift tester strains. TA100 and TA102 are base-substitution tester strains. Upon receipt each strain was cultured under a variety of conditions to confirm the genotypes specific to the strains.
(§2) The first tests done with the strains were to determine the range of spontaneous reversion for each of the strains. With each mutagenicity experiment the spontaneous reversion of the tester strains to histidine independence was measured and expressed as the number of spontaneous revertants per plate. This served as the background controls.
(§3) For all experiments, the pre-incubation procedure was used. In this procedure one vial of each tester strain was thawed and 20 μL of this culture was added to 6 mL of Oxoid Nutrient Broth #2. This solution was allowed to shake for 10 hours at 37° C. In the pre-incubation procedure, 0.1 mL of this overnight culture was added to each of the required number of sterile test tubes. To half of the tubes 0.5 mL of a 10% S-9 solution containing Aroclor 1254 induced rat liver extract (Molecular Toxicology Inc., Annapolis, Md.), and MgCl2, KCl, glucose-6-phosphate, NADP, and sodium phosphate buffer (Sigma, St. Louis, Mo.) were added. To the other half of the tubes 0.5 mL of 0.2M sodium phospate buffer, pH 7.4, was used in place of the S-9 mixture (the—S9samples). Finally 0.1 mL of the test solution containing either 0, 0.1, 0.5, 1, 5, 10, 50, 100, 250, or 500 μg/mL of the test compound was added. The 0.7 mL mixture was vortexed and then pre-incubated while shaking for 20 minutes at 37° C. After shaking, 2 mL of molten top agar supplemented with histidine and biotin were added to the 0.7 mL mixture and immediately poured onto a minimal glucose agar plate (volume of base agar was 20 mL). The top agar was allowed 30 minutes to solidify and then the plates were inverted and incubated for 44 hours at 37° C. After incubation the number of revertant colonies on each plate were counted. […] (“n” represents the number of replicates performed for each data point.)

[2] = test system: Salmonella tester strain TA1538
Procedure: as §1, §2, §3

[3] = test system: Salmonella typhimurium tester strains; assay: Ames Salmonella dark mutagenicity test, overall assessment; type: cell-based; details: two-fold or greater increase in revertants above background and dose dependence
Procedure: A brief description for each procedure is given here. […] TA97a, TA98, TA1537 and TA1538 are frameshift tester strains. TA100 and TA102 are base-substitution tester strains.
This served as the background controls.
For all experiments, the pre-incubation procedure was used.

HIV-1 = details: for HIV Log Kill: 1 minute irradiation
Procedure: As in the R17 assay, small aliquots of the compounds listed in TABLES 10 and 11, below, at the concentrations listed in the table, were added to stock HIV-1 to a total of 0.5 mL. The stock HIV (10^5−10^7 plaque forming units/mL) was in DMEM15% FBS. […] Controls included HIV-1 stock only, HIV-1 plus UVA only, and HIV-1 plus the highest concentration of each psoralen tested, with no UVA. Post irradiation, all samples were store frozen at −70° C. until assayed for infectivity by a microtiter plaque assay. Aliquots for measurement of residual HIV infectivity in the samples treated with a compound of the present invention were withdrawn and cultured.
Residual HIV infectivity was assayed using an MT-2 infectivity assay. […] The assay medium was 85% DMEM (with a high glucose concentration) containing 100 μg of streptomycin, 100 U of penicillin, 50 μg of gentamicin, and 1 μg of amphotericin B per mL, 15% FBS and 2 μg of Polybrene (Sigma Chemical Co., St. Louis, Mo.) per mL. Test and control samples from the inactivation procedure were diluted in 50% assay medium and 50% normal human pooled plasma The samples were serially diluted directly in 96-well plates (Corning Glass Works, Corning, N.Y.). The plates were mixed on an oscillatory shaker for 30 seconds and incubated at 37° C. in a 5% CO2 atmosphere for 1 to 18 hours. […] After an additional 1 hour of incubation at 37° C. in 5% CO2, 0.075 mL of assay medium containing 1.6% SeaPlaque agarose (FMC Bioproducts, Rockland, Me.) and prewarmed to 38.5° C. was added to each well. The plates were kept at 37° C. for a few minutes until several plates had accumulated and then centrifuged in plate carriers at 600×g for 20 minutes in a centrifuge precooled to 10° C. In the centrifuge, cell monolayers formed prior to gelling of the agarose layer. The plates were incubated for 5 days at 37° C. in 5% CO2 and stained by the addition of 0.05 mL of 50 μg/mL propidium iodide (Sigma Chemical Co.) in phosphate-buffered saline (pH 7.4) to each well. After 24 to 48 hours, the red fluorescence-stained microplaques were visualized by placing the plates on an 8,000 μW/cm^2304 nm UV light box (Fotodyne, Inc., New Berlin, Wis.). The plaques were counted at a magnification of x20 to x25 through a stereomicroscope.

[4] = test system: Salmonella tester strain TA1537; assay: Ames test, strain TA1537; details: TA1537 − S9; 10 μg/plate
Procedure: as §1, §2, §3

[5] = test system: Salmonella tester strain TA98; assay: Ames test, strain TA98; details: TA98 − S9; 10 μg/plate
Procedure: as §1, §2
For all experiments, the pre-incubation procedure was used. In this procedure one vial of each tester strain was thawed and 20 μL of this culture was added to 6 mL of Oxoid Nutrient Broth #2. This solution was allowed to shake for 10 hours at 37° C. In the pre-incubation procedure, 0.1 mL of this overnight culture was added to each of the required number of sterile test tubes. To half of the tubes 0.5 mL of a 10% S-9 solution containing Aroclor 1254 induced rat liver extract (Molecular Toxicology Inc., Annapolis, Md.), and MgCl2, KCl, glucose-6-phosphate, NADP, and sodium phosphate buffer (Sigma, St. Louis, Mo.) were added. To the other half of the tubes 0.5 mL of 0.2M sodium phospate buffer, pH 7.4, was used in place of the S-9 mixture (the—S9samples). […] The 0.7 mL mixture was vortexed and then pre-incubated while shaking for 20 minutes at 37° C. After shaking, 2 mL of molten top agar supplemented with histidine and biotin were added to the 0.7 mL mixture and immediately poured onto a minimal glucose agar plate (volume of base agar was 20 mL). The top agar was allowed 30 minutes to solidify and then the plates were inverted and incubated for 44 hours at 37° C. After incubation the number of revertant colonies on each plate were counted. […] (“n” represents the number of replicates performed for each data point.)

mouse reticulocytes = details: positive control, 30 mg/kg administered only once, on day three, blood on day 5; 30 mg/kg
Procedure: Male Balb/c mice were then injected with 0.1 ml of a compound solution via the tail vein. At least 3 mice were injected per dose level. Saline only was used as a negative control. For a positive control, cyclophosphamide (cycloPP) was administered at a dose of 30 mg/kg. In the experimental group, the injections were repeated once per day for four days. In the positive control group, the sample was administered only once, on day three. On day 5, several microliters of blood were withdrawn from each subject and smeared on a glass slide. Cells were fixed in absolute methanol and stored in a slide rack.
For analysis, cells were stained with acridine orange and visualized under a fluorescence microscope by counting: (i) the number of reticulocytes per 5000 erythrocytes; and (ii) the number of micronucleated reticulocytes per 1000 reticulocytes. Reticulocytes were distinguished by their red fluorescence due to the presence of RNA. Micronuclei were distinguished by their green fluorescence due to the presence of DNA. The percentage of reticulocytes (%PCE) was then calculated. A decrease in the frequency of […] in the percentage of reticulocytes, is an indication of bone marrow toxicity. The percentage of reticulocytes with micronuclei (%PCE with MN) was also calculated. An increase in %PCE with MN is a measure of clastogenicity.
After initial results were determined, the experiment was repeated using increased dose levels, until: (i) Micronucleus formation was seen; or (ii) Bone marrow toxicity was observed; or (iii) The lethal dose was reached; or (iv) A dose of 5 g/kg was administered.

[6] = test system: Salmonella tester strain TA102; assay: Ames test, strain TA102; details: TA102 − S9; 100 μg/plate
Procedure: as §1, §2, §3

[7] = 16 μM, starting titer approx. 7.1 logs, 1 minute irradiation = 1.2 J/cm^2 (Table 8)
[8] = 32 μM, starting titer approximately 5 logs (Table 10)
[9] = 64 μM, starting titer approximately 5 logs (Table 10)
[10] = 16 μM, starting titer approximately 5 logs (Table 10)

## Cc1oc2c(C)c3oc(=O)cc(C)c3cc2c1CCN [Compound 3, 4′-(2-aminoethyl)-4,5′,8-trimethylpsoralen]
R17 bacteriophage; 8 μM, starting titer approx. 7.1 logs, 1 minute irradiation = 1.2 J/cm^2 (Table 8)
  R17 Log Kill: 5.6 log
R17 bacteriophage; 8 μM, starting titer approx. 7.2 logs, 1 minute irradiation (Table 7)
  R17 Log Kill: >6.2 log
R17 bacteriophage; [7]
  R17 Log Kill: >6.1 log
R17 bacteriophage; 16 μM, starting titer approx. 7.2 logs, 1 minute irradiation (Table 7)
  R17 Log Kill: >6.2 log
R17 bacteriophage; 32 μM, starting titer approx. 7.2 logs, 1 minute irradiation (Table 7)
  R17 Log Kill: >6.2 log
R17 bacteriophage
  R17 inactivation efficiency compared with AMT or 8-MOP (in words): significantly higher inactivation efficiency than does AMT
[1]; TA100 + S9, 5 μg/plate
  revertant colonies per plate: −19
[1]; TA100 + S9, 10 μg/plate
  revertant colonies per plate: 8
[1]; TA100 − S9, 5 μg/plate
  revertant colonies per plate: 47
[1]; TA100 − S9, 10 μg/plate
  revertant colonies per plate: 47
[2]; TA1538 + S9, 5 μg/plate
  revertant colonies per plate: 1
[2]; TA1538 + S9, 10 μg/plate
  revertant colonies per plate: 9
[2]; TA1538 − S9, 5 μg/plate
  revertant colonies per plate: 0
[2]; TA1538 − S9, 10 μg/plate
  revertant colonies per plate: −6
[3]
  mutagenic response in the Ames assay (in words): no mutagenicity
HIV-1; [8]
  HIV Log Kill: 2.7 log
HIV-1; [9]
  HIV Log Kill: >3.8 log
HIV-1; cell-free HIV, 64 μM of compound or higher for compounds 2 and 3
  HIV inactivation compared with AMT (in words): significantly more active than AMT

## Nc1c2ccccc2nc2ccccc12 [9-Amino-acridine, reference compound]
[4]
  revertant colonies per plate: 284
[5]
  revertant colonies per plate: 284

## Cc1oc2c(C)c3oc(=O)cc(C)c3cc2c1COCCOCCN [Compound 7, 4′-(7-amino-2,5-oxa)heptyl-4,5′,8-trimethylpsoralen]
R17 bacteriophage; 16 μM, starting titer approx. 7.1 logs, 1 minute irradiation (Table 9)
  R17 Log Kill: >6 log
R17 bacteriophage; 32 μM, starting titer approx. 7.1 logs, 1 minute irradiation (Table 9)
  R17 Log Kill: >6 log
R17 bacteriophage; 64 μM, starting titer approx. 7.1 logs, 1 minute irradiation (Table 9)
  R17 Log Kill: >6 log
HIV-1; [10]
  HIV Log Kill: 0.8 log
HIV-1; [8]
  HIV Log Kill: 2.1 log
HIV-1; [9]
  HIV Log Kill: 3.5 log

## Cc1cc(=O)oc2c(C)c3oc(CNCCN)c(C)c3cc12 [Compound 16, 5′-(4-amino-2-aza)butyl-4,4′,8-trimethylpsoralen]
R17 bacteriophage
  R17 inactivation efficiency compared with AMT or 8-MOP (in words): significantly higher inactivation efficiency than does AMT

## [N-]=[N+]=[N-] [Sodium Azide, sodium azide, reference compound]
[1]; TA100 − S9, 1.5 μg/plate
  revertant colonies per plate: 965
[2]; TA1538 − S9, 1.5 μg/plate
  revertant colonies per plate: 965

## Cc1oc2c(C)c3oc(=O)cc(C)c3cc2c1COCCOCCNCCCCN [Compound 8, 4′-(12-amino-8-aza-2,5-dioxa)dodecyl-4,5′,8-trimethylpsoralen]
HIV-1; [10]
  HIV Log Kill: 1.1 log
HIV-1; [8]
  HIV Log Kill: 1.9 log
HIV-1; [9]
  HIV Log Kill: 3.7 log

## Cc1oc2c(C)c3oc(=O)cc(C)c3cc2c1CNCCCOCCCCOCCN [Compound 9, 4′-(13-amino-2-aza-6,11-dioxa)tridecyl-4,5′,8-trimethylpsoralen]
HIV-1; 16 μM, starting titer approximately 5.4 logs (Table 11)
  HIV Log Kill: 0.8 log
HIV-1; 32 μM, starting titer approximately 5.4 logs (Table 11)
  HIV Log Kill: 1.4 log
HIV-1; 64 μM, starting titer approximately 5.4 logs (Table 11)
  HIV Log Kill: 2.7 log

## Cc1oc2c(C)c3oc(=O)cc(C)c3cc2c1CNCCCN [Compound 5, 4′-(5-amino-2-aza)pentyl-4,5′,8-trimethylpsoralen]
R17 bacteriophage; [7]
  R17 Log Kill: 5.6 log
R17 bacteriophage; 32 μM, starting titer approx. 7.1 logs, 1 minute irradiation = 1.2 J/cm^2 (Table 8)
  R17 Log Kill: >6.1 log
R17 bacteriophage; 64 μM, starting titer approx. 7.1 logs, 1 minute irradiation = 1.2 J/cm^2 (Table 8)
  R17 Log Kill: >6.1 log
R17 bacteriophage
  R17 inactivation efficiency compared with AMT or 8-MOP (in words): significantly higher inactivation efficiency than does AMT
HIV-1; [10]
  HIV Log Kill: 0.9 log
HIV-1; [8]
  HIV Log Kill: 1.3 log
HIV-1; [9]
  HIV Log Kill: >2.6 log

## O=P1(N(CCCl)CCCl)NCCCO1 (stereo not drawn) [CylcoPP, cyclophosphamide, reference compound]
Mouse reticulocytes
  PCE + MN (%): 2.09 ± 0.17%
  PCE/RBC (%): 0.99 ± 0.33%

## OO [hydrogen peroxide]
[6]
  revertant colonies per plate: 660
